This passage reports IC50 and Ratio IC50 results from ChEMBL document CHEMBL5137121, “Spiroisoxazoline Inhibitors of Acetylcholinesterase from Pseudoceratina verrucosa. Quantitative Chiroptical Analysis of Configurational Heterogeneity, and Total Synthesis of (±)-Methyl Purpuroceratate C” (J Nat Prod, 2022).

Experiment [1] has as its target Acetylcholinesterase (Electrophorus electricus, UniProt O42275). In words: Inhibition of electric eel AChE using acetylthiocholine as substrate preincubated with enzyme for 30 mins followed by substrate addition by Ellman's method.
Experiment [2] has as its target Cholinesterase (Equus caballus, UniProt P81908). In words: Inhibition of horse BuChE using butyrylthiocholine as substrate preincubated with enzyme for 30 mins followed by substrate addition by Ellman's method. For orientation: Ellman's reagent forms a yellow product with free thiols.
The nature of experiment [3]: Selectivity index, ratio of IC50 for horse BuChE to IC50 for electric eel AChE.

Sequence of Cholinesterase (P81908 whole entry): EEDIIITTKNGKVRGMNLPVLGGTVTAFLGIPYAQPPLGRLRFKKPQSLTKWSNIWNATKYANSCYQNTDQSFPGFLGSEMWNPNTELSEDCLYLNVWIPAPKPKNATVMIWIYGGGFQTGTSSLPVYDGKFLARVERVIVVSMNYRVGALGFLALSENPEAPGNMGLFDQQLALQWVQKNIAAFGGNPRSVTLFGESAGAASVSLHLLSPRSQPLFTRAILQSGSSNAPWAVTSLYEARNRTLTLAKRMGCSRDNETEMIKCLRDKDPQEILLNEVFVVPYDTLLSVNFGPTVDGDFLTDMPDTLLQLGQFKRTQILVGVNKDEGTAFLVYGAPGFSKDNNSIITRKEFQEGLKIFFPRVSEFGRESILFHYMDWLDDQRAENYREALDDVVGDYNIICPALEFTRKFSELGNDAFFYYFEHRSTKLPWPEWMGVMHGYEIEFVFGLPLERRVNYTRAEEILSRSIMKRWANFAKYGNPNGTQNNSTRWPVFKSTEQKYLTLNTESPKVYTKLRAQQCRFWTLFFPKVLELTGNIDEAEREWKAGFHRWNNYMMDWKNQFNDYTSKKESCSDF
Sequence of Acetylcholinesterase (O42275 whole entry): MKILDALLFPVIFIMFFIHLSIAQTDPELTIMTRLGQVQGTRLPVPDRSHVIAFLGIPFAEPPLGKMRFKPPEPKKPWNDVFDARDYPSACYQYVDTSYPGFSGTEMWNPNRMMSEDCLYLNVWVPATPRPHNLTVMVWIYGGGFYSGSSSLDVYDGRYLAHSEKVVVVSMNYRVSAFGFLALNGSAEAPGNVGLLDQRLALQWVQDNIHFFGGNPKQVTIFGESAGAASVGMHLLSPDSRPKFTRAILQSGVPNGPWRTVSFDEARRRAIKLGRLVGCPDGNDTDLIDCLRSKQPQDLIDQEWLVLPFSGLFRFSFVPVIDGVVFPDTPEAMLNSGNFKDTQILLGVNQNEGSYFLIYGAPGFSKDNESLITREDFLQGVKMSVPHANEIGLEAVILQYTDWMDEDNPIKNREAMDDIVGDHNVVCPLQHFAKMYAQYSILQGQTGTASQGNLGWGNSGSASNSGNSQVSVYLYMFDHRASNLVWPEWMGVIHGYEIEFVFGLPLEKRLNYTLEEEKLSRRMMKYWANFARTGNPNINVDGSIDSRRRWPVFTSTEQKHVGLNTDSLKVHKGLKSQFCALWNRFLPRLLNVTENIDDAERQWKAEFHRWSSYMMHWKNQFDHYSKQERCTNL

As a reminder, the IC50 is the concentration that inhibits the measured activity by half. The low end stands for greater potency in that assay, the high end for weaker potency in that assay. With `COC1=C(Br)[C@H](O)[C@@]2(C=C1Br)CC(C(=O)NCCCOc1c(Br)cc(C[C@H](N)C(=O)O)cc1Br)=NO2`, the results for the 50% inhibitory concentration (IC50) in experiment [1] and in experiment [2] were 19.9 µM and greater than 100 µM, respectively. Further, in experiment [3], the Ratio IC50 is greater than 5.
The like results for `COC1=C(Br)[C@H](O)[C@@]2(C=C1Br)CC(C(N)=O)=NO2` were, in that order, 3.32 µM, 15.4 µM and 4.6.
On to `COC1=C(Br)[C@H](O)[C@@]2(C=C1Br)CC(C(=O)NCCc1cc(Br)c(OCCC(C(=O)[O-])[N+](C)(C)C)c(Br)c1)=NO2` (stereo not given in full), for which the results for the half-maximal inhibitory concentration (IC50) in experiment [1] and in experiment [2] were 4.79 µM and 10 µM, respectively. The Ratio IC50 in experiment [3] was 2.1.
`COC1=C(Br)[C@H](O)[C@@]2(C=C1Br)CC(C(=O)NCCc1cc(Br)c(O)c(Br)c1)=NO2`: the IC50 in experiment [1] came to 5.8 µM; in experiment [2], 10.7 µM. The Ratio IC50 in experiment [3] is 1.9.
Take `COC1=C(Br)[C@H](O)[C@@]2(C=C1Br)CC(C(=O)NCCCCCNC(=N)N)=NO2` [APLYSINAMISINE II]: the results for the IC50 in experiment [1] and in experiment [2] were 0.77 µM and 10.3 µM, respectively. For the same molecule, in experiment [3], the Ratio IC50 is 13.
